Publication PMC6488038 (Journal of the American Chemical Society, 2018)

Tested on: HCT116 cells
Assay: Cell viability, Alamar Blue assay, HCT116
Type: cell-based, human
Conditions: 72 h

N#Cc1c2c(cc3c1C(=O)N[C@@H]1C3=C[C@H](O)[C@@H](O)[C@H]1O)OCO2 [compound 46, 7cyanolycoricidine]
activity compared to lycoricidine (3): increased activity
